# Experimental data taken from ChEMBL document CHEMBL5154832, “Design, Synthesis, and Proof-of-Concept of Triple-Site Inhibitors against Aminoacyl-tRNA Synthetases” (J Med Chem, 2022).
# Columns and labels:
# [1] = molecular target: T1, Threonine--tRNA ligase (Salmonella enterica) (UniProt A0A3F3IEK2); assay: Inhibition of recombinant salmonella enterica threonyl-tRNA synthetase assessed as reduction in enzyme activity at 10 uM incubated for 20 min by Kinase Glo luminescence assay relative to control
# T1 sequence (whole entry): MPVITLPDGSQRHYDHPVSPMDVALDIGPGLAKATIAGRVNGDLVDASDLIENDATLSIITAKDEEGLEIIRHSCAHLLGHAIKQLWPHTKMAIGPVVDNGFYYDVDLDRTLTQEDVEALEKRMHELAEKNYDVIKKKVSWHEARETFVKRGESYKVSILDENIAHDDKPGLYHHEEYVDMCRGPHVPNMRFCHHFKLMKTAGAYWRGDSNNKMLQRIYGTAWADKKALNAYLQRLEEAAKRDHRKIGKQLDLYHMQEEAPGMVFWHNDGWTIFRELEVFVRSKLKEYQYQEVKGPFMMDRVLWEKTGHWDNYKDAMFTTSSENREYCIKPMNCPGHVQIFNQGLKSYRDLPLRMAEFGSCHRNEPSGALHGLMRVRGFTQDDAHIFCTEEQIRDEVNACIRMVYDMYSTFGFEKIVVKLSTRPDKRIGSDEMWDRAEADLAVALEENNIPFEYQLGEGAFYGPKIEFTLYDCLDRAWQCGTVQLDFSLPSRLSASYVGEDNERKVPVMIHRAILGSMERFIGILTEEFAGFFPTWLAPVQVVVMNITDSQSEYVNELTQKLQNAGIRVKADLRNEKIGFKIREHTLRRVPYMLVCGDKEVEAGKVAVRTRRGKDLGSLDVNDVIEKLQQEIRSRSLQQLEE
# Staphylococcus aureus [2] = assay: Antibacterial activity against Staphylococcus aureus MRSA R3708 strain assessed as inhibition of bacterial growth incubated for 8 hrs by CLSI protocol based microdilution assay; assay type: functional
# Enterococcus faecalis = assay: Antibacterial activity against Enterococcus faecalis ATCC 29212 strain assessed as inhibition of bacterial growth incubated for 8 hrs by CLSI protocol based microdilution assay; assay type: functional
# Escherichia coli [3] = assay: Antibacterial activity against Escherichia coli acraB strain assessed as inhibition of bacterial growth incubated for 8 hrs by CLSI protocol based microdilution assay; assay type: functional
# Escherichia coli [4] = assay: Antibacterial activity against Escherichia coli ATCC 25922 strain assessed as inhibition of bacterial growth incubated for 8 hrs by CLSI protocol based microdilution assay; assay type: functional
# Threonine--tRNA ligase = molecular target: T2, Threonine--tRNA ligase (Salmonella enterica, UniProt A0A3F3IEK2); assay: Inhibition of recombinant salmonella enterica threonyl-tRNA synthetase assessed as reduction in enzyme activity incubated for 20 min by Kinase Glo luminescence assay
# T2 sequence (A0A3F3IEK2 whole entry): T1 sequence (whole entry)
# Staphylococcus aureus [5] = assay: Antibacterial activity against Staphylococcus aureus ATCC 29213 strain assessed as inhibition of bacterial growth incubated for 8 hrs by CLSI protocol based microdilution assay; assay type: functional
# [6] = molecular target: T1, Threonine--tRNA ligase (Salmonella enterica); assay: Binding affinity to recombinant salmonella enterica threonyl-tRNA synthetase assessed as change in melting temperature at 0.1 mM by fluorescence-based thermal shift assay
# Pseudomonas aeruginosa = assay: Antibacterial activity against Pseudomonas aeruginosa ATCC27853 strain assessed as inhibition of bacterial growth incubated for 8 hrs by CLSI protocol based microdilution assay; assay type: functional
# Salmonella enterica = assay: Antibacterial activity against Salmonella enterica 87 strain assessed as inhibition of bacterial growth incubated for 8 hrs by CLSI protocol based microdilution assay; assay type: functional
Structure (SMILES),inhibition [1],MIC (Staphylococcus aureus [2]),MIC (Enterococcus faecalis),MIC (Escherichia coli [3]),MIC (Escherichia coli [4]),IC50 (Threonine--tRNA ligase),MIC (Staphylococcus aureus [5]),ΔTm [6],MIC (Pseudomonas aeruginosa),MIC (Salmonella enterica)
C[C@@H](O)[C@H](N)C(=O)N[C@@H](CNC(=O)CCn1cnc2cc(Br)c(Cl)cc2c1=O)c1cccc(-c2ccc3c(N)ncnc3c2)c1,> 99%,≥ 128 µg/mL,≥ 128 µg/mL,≥ 128 µg/mL,≥ 128 µg/mL,0.48 µM,≥ 128 µg/mL,35.2 °C,≥ 128 µg/mL,≥ 128 µg/mL
C[C@@H](O)[C@H](N)C(=O)N[C@@H](CNC(=O)CCn1cnc2cc(Cl)c(Cl)cc2c1=O)c1cccc(-c2ccc(Cl)cc2)c1,75%,4 µg/mL,4 µg/mL,8 µg/mL,≥ 128 µg/mL,3.29 µM,4 µg/mL,20.1 °C,4 µg/mL,≥ 128 µg/mL
C[C@@H](O)[C@H](N)C(=O)N[C@H](CNC(=O)CCn1cnc2cc(Br)c(Cl)cc2c1=O)c1cccc(-c2ccc3c(c2)CNC3=O)c1,86%,–,–,–,–,1.86 µM,–,17.9 °C,–,–
CN[C@H](C(=O)N[C@H](CNC(=O)CCn1cnc2cc(Cl)c(F)cc2c1=O)c1cccc(-c2ccccc2)c1)[C@@H](C)O,5%,–,–,–,–,–,–,7.2 °C,–,–
CC1(C)S[C@@H]2[C@H](NC(=O)[C@H](N)c3ccccc3)C(=O)N2[C@H]1C(=O)O [AMPICILLIN],–,–,–,1 µg/mL,1 µg/mL,–,–,–,1 µg/mL,1 µg/mL
C[C@@H](O)[C@H](N)C(=O)N[C@H](CNC(=O)CCn1cnc2cc(Br)c(Cl)cc2c1=O)c1cccc(-c2ccc3c(N)ncnc3c2)c1,57%,–,–,–,–,6.63 µM,–,29.4 °C,–,–
C[C@@H](O)[C@H](N)C(=O)N(CCC(=O)NCCn1cnc2cc(Br)c(Cl)cc2c1=O)Cc1cccc(-c2ccc3c(c2)CNC3=O)c1,80%,≥ 128 µg/mL,64 µg/mL,64 µg/mL,≥ 128 µg/mL,5.07 µM,≥ 128 µg/mL,25.4 °C,64 µg/mL,≥ 128 µg/mL
C[C@@H](O)[C@H](N)C(=O)N[C@H](CNC(=O)CCn1cnc2cc(Br)c(Cl)cc2c1=O)c1cccc(-c2ccc3[nH]ccc3c2)c1,24%,–,–,–,–,–,–,8.4 °C,–,–
C[C@@H](O)[C@@H](N)C(=O)N(CCCCCn1cnc2cc(Br)c(Cl)cc2c1=O)S(=O)(=O)c1cccc(-c2ccc3c(c2)CNC3=O)c1,16%,–,–,–,–,–,–,6.2 °C,–,–
C[C@@H](O)[C@H](N)C(=O)N[C@H](CNC(=O)CCn1cnc2cc(Br)c(Cl)cc2c1=O)c1cccc(-c2ccc3[nH]ncc3c2)c1,30%,–,–,–,–,–,–,10.2 °C,–,–
C[C@@H](O)[C@H](N)C(=O)N(CCCCOC(=O)Cn1cnc2cc(Br)c(Cl)cc2c1=O)Cc1cccc(-c2ccc3c(c2)CNC3=O)c1,–,–,–,–,–,–,–,0 °C,–,–
C[C@@H](O)[C@H](N)C(=O)N(CCCOC(=O)Cn1cnc2cc(Br)c(Cl)cc2c1=O)Cc1cccc(-c2ccc3c(c2)CNC3=O)c1,–,–,–,–,–,–,–,0 °C,–,–
C[C@@H](O)[C@H](N)C(=O)N[C@H](CNC(=O)CCn1cnc2cc(Cl)c(F)cc2c1=O)c1cccc(-c2ccccc2)c1,11%,–,–,–,–,–,–,12.1 °C,–,–
